Data as given in patent publication US5789431A, “Naphthoquinone antitumor compound and method” (The University of North Carolina at Chapel Hill, priority 1996, dated 1998).

Experiments:
[1] = test system: SK-MEL-2; assay: in vitro melanoma cell growth inhibition (NCI screen)
[2] = test system: OVCAR-3; assay: in vitro ovarian cancer cell growth inhibition (NCI screen)
[3] = test system: MALME-3M; assay: in vitro melanoma cell growth inhibition (NCI screen)
[4] = test system: SF-539; assay: in vitro CNS cancer cell growth inhibition (NCI screen)
[5] = test system: UACC-257; assay: in vitro melanoma cell growth inhibition (NCI screen)
[6] = test system: SK-MEL-28; assay: as above
[7] = test system: M14; assay: as above
[8] = test system: UACC-62; assay: as above
[9] = test system: MDA-N; assay: in vitro breast cancer cell growth inhibition (NCI screen)
[10] = test system: MCF-7; assay: as above
[11] = test system: HL-60(TB); assay: in vitro leukemia cell growth inhibition (NCI screen)
[12] = test system: MDA-MB-435; assay: in vitro breast cancer cell growth inhibition (NCI screen)
[13] = test system: OVCAR-5; assay: in vitro ovarian cancer cell growth inhibition (NCI screen)
[14] = test system: SR; assay: in vitro leukemia cell growth inhibition (NCI screen)
[15] = test system: HOP-92; assay: in vitro non-small cell lung cancer cell growth inhibition (NCI screen)
[16] = test system: RXF-393; assay: in vitro renal cancer cell growth inhibition (NCI screen)
[17] = test system: SN12C; assay: as above
[18] = test system: DLD-1; assay: in vitro colon cancer cell growth inhibition (NCI screen)
[19] = test system: RXF-631; assay: in vitro renal cancer cell growth inhibition (NCI screen)
[20] = test system: XF-498; assay: in vitro CNS cancer cell growth inhibition (NCI screen)
[21] = test system: RPMI-8226; assay: in vitro leukemia cell growth inhibition (NCI screen)
[22] = test system: NCI-H266; assay: in vitro non-small cell lung cancer cell growth inhibition (NCI screen)
[23] = test system: MOLT-4; assay: in vitro leukemia cell growth inhibition (NCI screen)
[24] = test system: U 251; assay: in vitro CNS cancer cell growth inhibition (NCI screen)
[25] = test system: CCRF-CEM; assay: in vitro leukemia cell growth inhibition (NCI screen)
[26] = test system: HOP-18; assay: in vitro non-small cell lung cancer cell growth inhibition (NCI screen)
[27] = test system: K-562; assay: in vitro leukemia cell growth inhibition (NCI screen)
[28] = test system: IGROV1; assay: in vitro ovarian cancer cell growth inhibition (NCI screen)
[29] = test system: KM 12; assay: in vitro colon cancer cell growth inhibition (NCI screen)
[30] = test system: OVCAR-4; assay: in vitro ovarian cancer cell growth inhibition (NCI screen); details: OVACR-4
[31] = test system: NCI-H23; assay: in vitro non-small cell lung cancer cell growth inhibition (NCI screen)
[32] = test system: M19-MEL; assay: in vitro melanoma cell growth inhibition (NCI screen)
[33] = test system: LXFL 529; assay: in vitro non-small cell lung cancer cell growth inhibition (NCI screen)
[34] = test system: SNB-75; assay: in vitro CNS cancer cell growth inhibition (NCI screen)
[35] = test system: NCI-H460; assay: in vitro non-small cell lung cancer cell growth inhibition (NCI screen)
[36] = test system: NCI-H522; assay: as above
[37] = test system: human tumor cell lines; type: cell-based
[38] = test system: HCT-116; assay: in vitro colon cancer cell growth inhibition (NCI screen)
[39] = test system: HOP-62; assay: in vitro non-small cell lung cancer cell growth inhibition (NCI screen)
[40] = test system: SNB-19; assay: in vitro CNS cancer cell growth inhibition (NCI screen)
[41] = test system: 786-0; assay: in vitro renal cancer cell growth inhibition (NCI screen)
[42] = test system: HCT-15; assay: in vitro colon cancer cell growth inhibition (NCI screen)
[43] = test system: SF-295; assay: in vitro CNS cancer cell growth inhibition (NCI screen)
[44] = test system: SF-268; assay: as above
[45] = test system: ACHN; assay: in vitro renal cancer cell growth inhibition (NCI screen)
[46] = test system: LOX1MVI; assay: in vitro melanoma cell growth inhibition (NCI screen)
[47] = test system: SK-MEL-5; assay: as above
[48] = test system: UO-31; assay: in vitro renal cancer cell growth inhibition (NCI screen)
[49] = test system: SW 620; assay: in vitro colon cancer cell growth inhibition (NCI screen)
[50] = test system: COLO-205; assay: as above
[51] = test system: EKVX; assay: in vitro non-small cell lung cancer cell growth inhibition (NCI screen)
[52] = test system: PC-3; assay: in vitro prostate cancer cell growth inhibition (NCI screen)
[53] = test system: TK-10; assay: in vitro renal cancer cell growth inhibition (NCI screen)

Row | SMILES | cytotoxicity log GI50 [1] [M] | cytotoxicity log GI50 [2] [M] | cytotoxicity log GI50 [3] [M] | cytotoxicity log GI50 [4] [M] | cytotoxicity log GI50 [5] [M] | cytotoxicity log GI50 [6] [M] | cytotoxicity log GI50 [8] [M] | cytotoxicity log GI50 [11] [M] | cytotoxicity log GI50 [15] [M] | cytotoxicity log GI50 [16] [M] | cytotoxicity log GI50 [18] [M] | cytotoxicity log GI50 [19] [M] | cytotoxicity log GI50 [21] [M] | cytotoxicity log GI50 [23] [M] | cytotoxicity log GI50 [24] [M] | cytotoxicity log GI50 [25] [M] | cytotoxicity log GI50 [30] [M] | cytotoxicity log GI50 [32] [M] | cytotoxicity log GI50 [34] [M] | cytotoxicity log GI50 [36] [M] | other results
1 | COC(=O)CCC(=O)NC1=C(Nc2ccccc2)C(=O)c2ccccc2C1=O [Compound 54] | -5.41 | -5.52 | -5.76 | -5.11 | -5.56 | -5.59 | -5.75 | -5.46 |  |  |  |  |  |  |  |  |  |  |  |  | cytotoxicity log GI50 [7]: -5.71 M; cytotoxicity log GI50 [9]: -5.69 M; cytotoxicity log GI50 [10]: -5.75 M; cytotoxicity log GI50 [12]: -5.67 M; cytotoxicity log GI50 [13]: -5.41 M
2 | CCC(c1ccc(F)cc1)c1nc2c(n1CC)C(=O)c1ccccc1C2=O (stereo not drawn) [Compound 65] | -4.77 |  |  |  |  |  | -4.95 | -4.74 | -4.75 | -4.83 | -5.69 | -4.71 | -4.68 | -4.73 | -4.71 |  |  |  |  |  | cytotoxicity log GI50 [14]: -4.73 M; cytotoxicity log GI50 [17]: -4.90 M; cytotoxicity log GI50 [20]: -4.70 M; cytotoxicity log GI50 [22]: -4.82 M
3 | O=C(Cc1ccccc1F)NC1=C(Cl)C(=O)c2ccccc2C1=O [Compound 2i, 2-(2-Fluorophenyl)acetamido-3-chloro-1,4-naphthoguinone] | -6.21 |  |  | -6.62 |  | -6.34 | -6.48 | -6.55 |  |  |  |  | -6.44 | -6.60 | -6.48 | -6.54 | -6.22 | -6.36 | -6.33 | -6.67 | cytotoxicity log GI50 [26]: -6.18 M; cytotoxicity log GI50 [14]: -6.32 M; cytotoxicity log GI50 [27]: -6.53 M; cytotoxicity log GI50 [28]: -6.17 M; cytotoxicity log GI50 [29]: -6.29 M; cytotoxicity log GI50 [31]: -6.25 M; cytotoxicity log GI50 [33]: -6.40 M; cytotoxicity log GI50 [7]: -6.29 M; cytotoxicity log GI50 [35]: -6.15 M; GI50 ([37]; Homo sapiens, cancer cell panel, general / most cell lines, read-out: logGI50 values in the cancer cell line panel (converted)): 25.1 to 2510 nM; cytotoxicity log GI50 [38]: -6.37 M
4 | NC1=C(NC(=O)Cc2ccccc2F)C(=O)c2ccccc2C1=O [Compound 3b] | -4.84 | -5.08 | -4.87 | -4.57 | -4.53 |  | -4.42 |  | -4.65 | -4.46 | -4.78 |  |  |  | -4.44 |  |  | -5.35 | -4.73 | -4.67 | cytotoxicity log GI50 [39]: -4.59 M; cytotoxicity log GI50 [40]: -4.45 M; cytotoxicity log GI50 [41]: -4.57 M; cytotoxicity log GI50 [42]: -4.62 M; cytotoxicity log GI50 [43]: -4.49 M; cytotoxicity log GI50 [44]: -4.46 M; cytotoxicity against tumor cells (in words) ([37]; cancer cell line panel): inactive against all representative cancer cell lines
5 | COc1ccc(CNC2=C(NC(C)=O)C(=O)c3ccccc3C2=O)cc1 [Compound 41] | -5.04 | -5.09 | -5.08 | -5.13 | -5.06 |  | -5.11 | -5.77 | -5.18 |  | -5.07 | -5.19 |  | -5.43 |  | -5.06 | -5.09 | -5.02 |  | -5.86 | cytotoxicity log GI50 [27]: -5.11 M; cytotoxicity log GI50 [45]: -5.68 M; cytotoxicity log GI50 [31]: -5.17 M; cytotoxicity log GI50 [46]: -5.07 M; cytotoxicity log GI50 [47]: -5.13 M; cytotoxicity log GI50 [48]: -5.02 M; cytotoxicity log GI50 [49]: -5.09 M; cytotoxicity log GI50 [50]: -5.03 M; cytotoxicity log GI50 [38]: -5.29 M
6 | CCn1c(Cc2ccc(F)cc2)nc2c1C(=O)c1ccccc1C2=O [Compound 66] |  |  | -4.94 | -4.88 | -5.10 |  |  | -5.33 | -4.97 |  |  | -4.82 | -4.94 |  |  | -5.08 |  | -5.02 | -4.80 | -5.06 | cytotoxicity log GI50 [45]: -4.85 M; cytotoxicity log GI50 [35]: -4.90 M; cytotoxicity log GI50 [48]: -5.33 M
7 | CCNC1=C(NC(=O)CCl)C(=O)c2ccccc2C1=O [Compound 44] |  | -4.75 |  |  |  | -4.75 |  |  |  | -4.78 |  |  |  |  |  |  | -4.77 |  |  | -4.82 | cytotoxicity log GI50 [39]: -4.78 M; cytotoxicity log GI50 [51]: -4.80 M; cytotoxicity log GI50 [17]: -4.75 M; cytotoxicity log GI50 [29]: -4.77 M; cytotoxicity log GI50 [52]: -4.80 M; cytotoxicity log GI50 [47]: -4.78 M; cytotoxicity log GI50 [53]: -4.75 M; cytotoxicity log GI50 [9]: -4.81 M; cytotoxicity log GI50 [38]: -4.74 M
